Data as given in ChEMBL document CHEMBL4627246, “Pyroglutamide-Based P2X7 Receptor Antagonists Targeting Inflammatory Bowel Disease” (J Med Chem, 2020).

What was measured:
Assay type in all cases: cell-based
IGROV-1 = assay: Cytotoxicity against human IGROV1 cells assessed as effect on cell growth at 10 uM incubated for 48 hrs by sulforhodamine B assay; conditions: igrov-1, 48 h
RPMI-8226 = assay: Cytotoxicity against human RPMI8226 cells assessed as effect on cell growth at 10 uM incubated for 48 hrs by sulforhodamine B assay; conditions: rpmi-8226, 48 h
SK-MEL-2 = assay: Cytotoxicity against human SK-MEL-2 cells assessed as effect on cell growth at 10 uM incubated for 48 hrs by sulforhodamine B assay; conditions: sk-mel-2, 48 h
MOLT-4 = assay: Cytotoxicity against human MOLT4 cells assessed as effect on cell growth at 10 uM incubated for 48 hrs by sulforhodamine B assay; conditions: molt-4, 48 h
SN12C = assay: Cytotoxicity against human SN12C cells assessed as effect on cell growth at 10 uM incubated for 48 hrs by sulforhodamine B assay
NCI-H522 = assay: Cytotoxicity against human NCI-H522 cells assessed as effect on cell growth at 10 uM incubated for 48 hrs by sulforhodamine B assay; conditions: nci-h522, 48 h
SK-OV-3 = assay: Cytotoxicity against human SKOV3 cells assessed as effect on cell growth at 10 uM incubated for 48 hrs by sulforhodamine B assay; conditions: sk-ov-3, 48 h
SF-268 = assay: Cytotoxicity against human SF268 cells assessed as effect on cell growth at 10 uM incubated for 48 hrs by sulforhodamine B assay; conditions: sf-268, 48 h
NCI-H23 = assay: Cytotoxicity against human NCI-H23 cells assessed as effect on cell growth at 10 uM incubated for 48 hrs by sulforhodamine B assay; conditions: nci-h23, 48 h
CAKI-1 = assay: Growth inhibition of human Caki1 cells assessed as growth percentage at 10 uM incubated for 48 hrs by sulforhodamine B assay; conditions: caki-1, 48 h
M14 = assay: Cytotoxicity against human M14 cells assessed as effect on cell growth at 10 uM incubated for 48 hrs by sulforhodamine B assay; conditions: m14, 48 h
HT-29 = assay: Cytotoxicity against human HT-29 cells assessed as effect on cell growth at 10 uM incubated for 48 hrs by sulforhodamine B assay; conditions: ht-29, 48 h
MDA-MB-435 = assay: Cytotoxicity against human MDA-MB-435 cells assessed as effect on cell growth at 10 uM incubated for 48 hrs by sulforhodamine B assay; conditions: mda-mb-435, 48 h
TK-10 = assay: Cytotoxicity against human TK10 cells assessed as effect on cell growth at 10 uM incubated for 48 hrs by sulforhodamine B assay; conditions: tk-10, 48 h
SK-MEL-28 = assay: Cytotoxicity against human SK-MEL-28 cells assessed as effect on cell growth at 10 uM incubated for 48 hrs by sulforhodamine B assay; conditions: sk-mel-28, 48 h
NCI-H226 = assay: Cytotoxicity against human NCI-H226 cells assessed as effect on cell growth at 10 uM incubated for 48 hrs by sulforhodamine B assay; conditions: nci-h226, 48 h
U-251 = assay: Cytotoxicity against human U251 cells assessed as effect on cell growth at 10 uM incubated for 48 hrs by sulforhodamine B assay; conditions: u-251, 48 h
LOX IMVI = assay: Cytotoxicity against human LOXIMVI cells assessed as effect on cell growth at 10 uM incubated for 48 hrs by sulforhodamine B assay
OVCAR-3 = assay: Cytotoxicity against human OVCAR3 cells assessed as effect on cell growth at 10 uM incubated for 48 hrs by sulforhodamine B assay; conditions: ovcar-3, 48 h
A549 = assay: Cytotoxicity against human A549/ATCC cells assessed as effect on cell growth at 10 uM incubated for 48 hrs by sulforhodamine B assay; conditions: a549, 48 h

Measured: Activity

O=C(NCc1ccccc1Cl)[C@@H]1CCC(=O)N1Cc1ccc(Cl)cc1
Non-Toxic: all assays above

O=C(NCc1ccc(Cl)cc1Cl)[C@@H]1CCC(=O)N1C(c1ccc(Cl)cc1)c1ccc(Cl)cc1
Non-Toxic: all assays above

COC(=O)[C@@H]1C/C(=C\NCc2ccc(Cl)cc2Cl)C(=O)N1C(=O)OC
Non-Toxic: all assays above

O=C(NCc1ccccc1Cl)[C@@H]1CCC(=O)N1Cc1ccccc1Cl
Non-Toxic: all assays above

CN1C(=O)CC[C@H]1C(=O)NCc1cc(C(F)(F)F)ccc1Cl
Non-Toxic: all assays above

COc1ccc(CN2C(=O)[C@@H]3C/C(=C\N(C)C)C(=O)N3C2N(C)C)c(OC)c1 (stereo not given in full)
Non-Toxic: all assays above
